Residue numbers refer to the chain shown, from its start. “Also recorded” adds a separate entry of the source.
How the values were obtained:
[1] = biological target: T1, hENT1cryst (Homo sapiens, UniProt Q99808, DEL243-274/L168F/N288K/P175A); test: cold-competition SPA: displacement of 3H-NBMPR from detergent purified hENT1cryst; type: binding
T1 construct: GFP; FLAG; His10; made in house
T1 sequence (Q99808 with tags, fused parts or gaps L168F/P175A/DEL243-274/N288K): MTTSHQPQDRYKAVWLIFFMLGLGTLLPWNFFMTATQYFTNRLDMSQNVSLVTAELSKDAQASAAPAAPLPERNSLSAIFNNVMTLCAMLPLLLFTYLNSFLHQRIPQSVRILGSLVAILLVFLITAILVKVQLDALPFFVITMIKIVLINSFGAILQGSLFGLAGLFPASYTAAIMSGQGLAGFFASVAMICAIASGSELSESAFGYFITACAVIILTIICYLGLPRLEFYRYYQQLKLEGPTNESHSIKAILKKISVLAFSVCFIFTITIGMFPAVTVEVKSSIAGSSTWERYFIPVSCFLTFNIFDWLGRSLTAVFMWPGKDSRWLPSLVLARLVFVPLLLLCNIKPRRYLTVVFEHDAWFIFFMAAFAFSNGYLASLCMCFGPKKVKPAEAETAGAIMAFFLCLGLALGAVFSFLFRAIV
Method: The binding of cold competitor (dilazep control or JH-ENT-01) to hENT1cryst (85 nM) was assessed by the displacement of ^3H-NBMPR (10 nM) from the transporter (n=6 technical replicates from two representative experiments shown, error bars represent S.E.M.) FIG. 18A-C show initial functional characterization of novel hENT1 inhibitors.
A scintillation proximity assay was developed to measure binding of ^3H-NBMPR to hENT1-GFP fusion expressed and detergent solubilized from transiently transfected HEK293T cells (see Methods for details). By successively heating the assay mixture at increasing temperatures and measuring binding signal with scintillation counting, Tm values were determined for engineered hENT1 constructs bearing point mutations or truncations of disordered loops. Point mutations were designed based on a consensus approach, which is described in the Methods section of this chapter. A total of 40 point mutations or disordered-loop truncations were screened with this ^3H-NBMPR SPA approach (FIG. 4A). Mutations L168F, P175A and N288K were identified to substantially increase Tm. […] Importantly, hENT1cryst mediates nucleoside transport to a level consistent with a previous report in proteoliposomes (FIG. 3A) and is also functionally active in when expressed in oocytes (FIG. 3B). […]

[2] = biological target: T2, hENT1 (Homo sapiens, UniProt Q99808); test: 3H-adenosine uptake in oocytes expressing hENT1; type: cell-based; conditions: initial experiment n=1, FIG. 19
T2 construct: expressed in transfected cells; host or cells: oocytes (X. laevis)
T2 sequence (Q99808 1-456): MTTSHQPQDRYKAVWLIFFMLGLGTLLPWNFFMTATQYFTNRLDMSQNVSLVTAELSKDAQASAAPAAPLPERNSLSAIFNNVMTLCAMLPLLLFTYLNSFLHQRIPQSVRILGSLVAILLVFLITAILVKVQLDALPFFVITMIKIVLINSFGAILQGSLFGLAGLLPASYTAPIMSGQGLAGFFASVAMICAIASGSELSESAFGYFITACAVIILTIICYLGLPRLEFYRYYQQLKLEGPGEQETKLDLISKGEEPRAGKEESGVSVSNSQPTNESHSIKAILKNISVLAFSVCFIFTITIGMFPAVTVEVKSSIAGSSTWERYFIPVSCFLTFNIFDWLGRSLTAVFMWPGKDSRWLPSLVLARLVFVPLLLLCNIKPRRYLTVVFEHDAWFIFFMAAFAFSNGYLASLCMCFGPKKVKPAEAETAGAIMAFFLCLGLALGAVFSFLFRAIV
Method: (§1) Initial experiment (n=1 replicates) showing JH-ENT-01 inhibits both hENT1 and hENT2 mediated uptake of ^3H-adenosine.
(§2) The subtype specificities for these compounds are currently unknown and pending further investigation with functional assays. Towards this end, established assays in oocytes permitted the measurement of nucleoside transport activity for multiple ENT subtypes (FIG. 18C) and the novel inhibitors were tested for their activities on different ENT subtypes (FIG. 19).

[3] = biological target: T3, hENT2 (Homo sapiens, UniProt Q14542); test: 3H-adenosine uptake in oocytes expressing hENT2; type: cell-based; conditions: initial experiment n=1, FIG. 19
T3 construct: expressed in transfected cells; host or cells: oocytes (X. laevis)
T3 sequence (Q14542 1-456): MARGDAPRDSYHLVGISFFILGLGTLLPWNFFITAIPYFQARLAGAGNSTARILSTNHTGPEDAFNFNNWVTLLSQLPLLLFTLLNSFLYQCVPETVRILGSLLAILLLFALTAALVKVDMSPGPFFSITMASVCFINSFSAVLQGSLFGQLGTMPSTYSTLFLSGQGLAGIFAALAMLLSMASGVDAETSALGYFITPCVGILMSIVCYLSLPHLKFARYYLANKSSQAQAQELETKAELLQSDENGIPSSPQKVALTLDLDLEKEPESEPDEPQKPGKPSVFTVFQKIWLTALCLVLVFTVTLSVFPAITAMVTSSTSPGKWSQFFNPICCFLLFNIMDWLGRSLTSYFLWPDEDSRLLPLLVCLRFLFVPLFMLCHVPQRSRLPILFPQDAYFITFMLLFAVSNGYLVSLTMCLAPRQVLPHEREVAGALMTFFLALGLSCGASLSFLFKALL
Method: as §1, §2

[4] = test system: SNI-induced neuropathic pain; test: SNI-induced neuropathic pain measured by PWF; type: in vivo; conditions: i.t., 100 nmol; p<0.05; n=4 males per group
[5] = plasma, brain and spinal cord pharmacokinetics after subcutaneous dosing; type: in vivo, Male CD-1 mice; conditions: for distribution into CNS tissue: brain and spinal cord, s.c. dosing, in equilibrium with plasma, no accumulation
Method: FIG. 27A-D show plasma (FIG. 27A), brain (FIG. 27B), and spinal cord (FIG. 27C) pharmacokinetics (PK) of JH-ENT-01 and dilazep. […] Male CD-1 mice (n=3 per time-point) were dosed subcutaneously (inj. volume: 8 μL/g BW) with 30 mg/kg of JH-ENT-01 (free base) and 29 mg/kg (molar equivalent) of dilazep dihydrochloride. Both drugs were formulated in 5% DMSO, 20% PEG-400, 20% propylene glycol, and 55% saline. Blood and tissues were collected at 10 min, 0.5, 1.5, 4.5, 8, 12, and 24 h. Following collection, the animals were perfused with saline. Liquid chromatography-tandem-mass spectrometry (LC/MS/MS) was used to determine drug concentration in samples. Pharmacokinetic parameters were calculated by non-compartmental approach within Win-Nonlin software. […] The distribution of both drugs into CNS tissue is high and is in equilibrium with plasma drug concentration (i.e., no drug accumulation in CNS).

[6] = biological target: T4, hENT1cryst mutants (M33I, F307A, F307Y) (Homo sapiens, UniProt Q99808, DEL244-275/L168F/M33I/N288K/P175A); test: cold competition displacement of 3H-NBMPR by dilazep, hENT1cryst mutants; type: binding; conditions: M33I mutant vs hENT1cryst
T4 construct: GFP; FLAG; His10; made in house
T4 sequence (Q99808 with tags, fused parts or gaps M33I/L168F/P175A/DEL244-275/N288K): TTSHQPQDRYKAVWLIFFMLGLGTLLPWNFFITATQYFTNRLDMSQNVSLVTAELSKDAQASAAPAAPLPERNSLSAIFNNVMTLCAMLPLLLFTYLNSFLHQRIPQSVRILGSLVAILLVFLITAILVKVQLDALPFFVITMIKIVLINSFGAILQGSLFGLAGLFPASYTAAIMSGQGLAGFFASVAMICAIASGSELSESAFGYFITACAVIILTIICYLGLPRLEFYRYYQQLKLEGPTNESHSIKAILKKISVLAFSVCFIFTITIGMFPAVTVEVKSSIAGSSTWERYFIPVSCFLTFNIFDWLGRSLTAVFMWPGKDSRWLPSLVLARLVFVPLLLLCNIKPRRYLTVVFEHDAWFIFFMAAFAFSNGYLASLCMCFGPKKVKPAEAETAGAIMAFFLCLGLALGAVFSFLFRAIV
From the text: (§3) This is substantiated by the equilibrium binding data, as both Q158S and Q158N ablate 3H-NBMPR binding capacity (FIG. 13B). […] This finding is consistent with previous reports on inhibitor sensitivities to substitutions at position 33 of hENT1.

[7] = biological target: T5, hENT1cryst mutants (M33I, F307A, F307Y) (Homo sapiens, UniProt Q99808, DEL244-275/F307A/L168F/N288K/P175A); test: as above; type: binding; conditions: F307A mutant vs hENT1cryst
T5 construct: GFP; FLAG; His10; made in house
T5 sequence (Q99808 with tags, fused parts or gaps L168F/P175A/DEL244-275/N288K/F307A): T4 sequence (Q99808 with tags, fused parts or gaps M33I/L168F/P175A/DEL244-275/N288K) with I32M, F274A
From the text: as §3

[8] = biological target: T6, hENT1cryst mutants (M33I, F307A, F307Y) (Homo sapiens, UniProt Q99808, DEL244-275/F307Y/L168F/N288K/P175A); test: as above; type: binding; conditions: F307Y mutant vs hENT1cryst
T6 construct: GFP; FLAG; His10; made in house
T6 sequence (Q99808 with tags, fused parts or gaps L168F/P175A/DEL244-275/N288K/F307Y): T4 sequence (Q99808 with tags, fused parts or gaps M33I/L168F/P175A/DEL244-275/N288K) with I32M, F274Y
From the text: as §3

[9] = s.c. 30 mg/kg JH-ENT-01 (free base) vs 29 mg/kg dilazep dihydrochloride

| increase in binding affinity to hENT1cryst ([1]; cold competitor vs dilazep control, hENT1cryst 85 nM, 3H-NBMPR 10 nM) | inhibition of hENT2 mediated uptake of 3H-adenosine [3] | distribution into CNS tissue [5] | half-life compared to dilazep [5, 9] | plasma AUC compared to dilazep [5, 9] | increase in apparent Kd for dilazep [6] | increase in apparent Kd for dilazep [7] | decrease in apparent Kd for dilazep [8] | SMILES | binding to target ([1]; in words, compared to dilazep (FIG. 17)) | inhibition of hENT1 mediated uptake of 3H-adenosine [2] | effect on SNI-induced neuropathic pain (PWF) [4] |
| --- | --- | --- | --- | --- | --- | --- | --- | --- | --- | --- | --- |
| ~2 fold | inhibits | high | longer half-life | higher plasma AUC | – | – | – | COc1cc(C(=O)OCCCN2CCCN(CCCOC(=O)c3cc(OC)c(OC)c(OCc4ccc([N+](=O)[O-])cc4)c3)CC2)cc(OC)c1OC [JH-ENT-01] | improved binding to target compared to dilazep | inhibits; also recorded: retains potent inhibition activity | reversing SNI-induced neuropathic pain |
| – | – | high | – | – | ~3 fold | ~90 fold | ~4 fold | COc1cc(C(=O)OCCCN2CCCN(CCCOC(=O)c3cc(OC)c(OC)c(OC)c3)CC2)cc(OC)c1OC [dilazep] | – | – | – |
